“Also recorded” adds a separate entry of the source.
What was measured:
[1] = Second meal effect crossover study: respiratory quotient over a test period including two meals and 30-min treadmill exertion; type: in vivo, human; settings: 20 subjects
Protocol: The test was a crossover study with 20 subjects. In each subject, the effect of isomaltulose vs. sucrose/glucose syrup was tested.
The test period comprised two meals into which the test substances were integrated: on the one hand a breakfast, which consisted of a drink (250 ml, 10% carbohydrates=25 g of test substance) and biscuits (approx. 140 g, also with 25 g of test substance), and on the other hand a lunch consisting of mini pizzas, an apple and a refreshment drink. The carbohydrate quantity, consumed per portion of shortpastry, of wheat starch of the flour was, at about 50-60 g carbohydrates, at the same level in all biscuit variants. Each test period comprised two postprandial phases.
The respiratory quotient was determined first at rest, then during the subsequent 30-min exertion at moderate intensity (treadmill uphill protocol 4 km/h 5% gradient), at the end of the 30-minute post-exertion phase and up to 4 hours after consumption of the second meal (the lunch).

[2] = 3-armed crossover study: respiratory quotient before, during and after physical exertion (bicycle ergometer, Wingate test) with test drinks; type: in vivo, human; settings: 21 male endurance athletes
Protocol: The effect of isomaltulose (Palatinose™) on the regulation of the metabolism before, during and after physical exertion was examined and compared with the consumption of maltodextrin or a placebo which has a non-glycaemic effect and is of equivalent sweetness.
The test was carried out as a 3-armed crossover study on 21 subjects. In each subject, the effect of a non-glycaemic drink (placebo=sweetened mineral water) was tested versus a drink containing maltodextrin versus isomaltulose.
The subjects were male endurance athletes with several years' training experience (VO2max>55 ml/kg KG) aged between 23 and 50.
In step ergometry on a bicycle (100 watts at the start; increased by 50 watts/3 min), performance was first determined in the range of from 70-75% of the maximum oxygen uptake. After a sufficient regeneration phase of at least 5 days, the first testing was carried out in randomised order. The testing was carried out in the morning, at the same time in each case, 3-4 hours after a standardised breakfast.
Standardised endurance exertion was first carried out on a bicycle ergometer at 70-75% of the VO2max over 90 min. […] The respiratory quotient (RQ) was determined at the moments −30, −15, 0, 15, 30, 45, 60, 75, 90 min before or during the exertion, immediately after completion of the Wingate test and also 3, 15, 30, 60 and 120 min after end of exertion. […]

Compound: OC[C@H]1O[C@H](OC[C@H]2OC(O)(CO)[C@@H](O)[C@@H]2O)[C@H](O)[C@@H](O)[C@@H]1O (stereo partly shown) [isomaltulose]
- RQ after consumption of the breakfast ([1]; breakfast drink with 25 g plus biscuits with 25 g test substance, versus sucrose/glucose syrup breakfast): lower than after the sucrose/glucose syrup breakfast
- degree by which the RQ was lower after consumption of a second meal (lunch) ([1]; up to 4 hours after the lunch, versus sucrose/glucose syrup): maintained
- respiratory quotient (RQ) after the physical exertion versus immediately prior to the exertion (percentage change) ([2]; 250 ml drinks with 25 g carbohydrate 30 min prior, at start, after 45 min and after Wingate test (2x250 ml), 90 min at 70-75% VO2max): substantially equal to or even lower; also recorded: substantially equal
- RQ throughout the test phase ([2]; isomaltulose drink compared with maltodextrin drink or placebo): lower RQ

From patent publication US20100004194A1, “USE OF ISOMALTULOSE IN FOOD PRODUCTS HAVING A REGENERATIVE EFFECT” (priority 2006, published 2010)
